In series [1] the test system is human CDKL5 patient fibroblast line. As to the kind of experiment: Toxicity of nanaomycin to CDKL5 patient fibroblasts. Format: cell-based. The settings on record: added every 2 days, 5 days treatment; data not shown. How it is done:
Experiments were also conducted to test Xi reactivation in human CDKL5 patient's fibroblast with XIST ASO-6B and DNMT3 inhibitor, Nanaomycin, co-treatment. A human CDKL5 patient fibroblast line carrying mutation on the Xa was treated with an ASO to XIST and a DNMT3i, nanaomycin A. After 5 days of treatment with 20 nM XIST ASO-6B (added once at day 0; lipofectamine transfection) and 25 nM-1 uM nanaomycin A (added every 2 days; days 0, 2, and 4), cells were harvested for qPCR analysis (FIG. 10A). Nanaomycin is very toxic, and the cells were dead in concentration above 250 nM (data not shown).

The conditions of series [2]: in plasma; cited from earlier work.
Series [3] deals with Xi reactivation in the brain. The series can be described thus: Aza/decitabine three pulse treatment, Xi reactivation in the brain. The following applies: three short pulses delivered systemically; after two weeks. It is filed as in vivo, mouse. From the text:
ASO drugs are generally more specific and have the advantage that information on pharmacokinetics and toxicity studies for chemically similar ASOs is transferable and cumulative. Thus, ASOs may have a more favorable path to regulatory approval. Small molecules generally have lower selectivity and may face steeper hurdles in the approval process within the US Food and Drug Administration (FDA). By mixing modalities, our approach may potentially anticipate a more streamlined approach to FDA approval. […] Unlike LNA-based ASOs which have tissue half-lives of several weeks (Wahlestedt C et al. Potent and nontoxic antisense oligonucleotides containing locked nucleic acids. Proc Natl Acad Sci USA. 2000; 97:5633-5638), Aza is known to have a very short half-life (t1/2<1h in plasma) (Welch J S et al. TP53 and decitabine in acute myeloid leukemia and myelodysplastic syndromes. N Engl J Med. 2016; 375:2023-2036). However, once DNA is demethylated, the state may be stable (Kordasiewicz H B et al. Sustained therapeutic reversal of Huntington's disease by transient repression of huntingtin synthesis. Neuron. 2012; 74:1031-1044). Future work will determine the duration of the effect and whether periodic boosters of either Aza or ASO might be necessary to maintain the reactivation.
Decitabine was administered to the XIST2lox, Nestin-Cre F2 generation, by IP injection at 5 weeks old. […]

The subject of the next series is cell culture. The series can be described thus: Tolerable Aza concentration in cell culture. Format: cell-based.
The subject of a further series is CDKL5 wt allele (Xi). As to the kind of experiment: CDKL5 wt allele reactivation in human CDKL5 patient fibroblasts, allele-specific qPCR. It is filed as cell-based. Here is the method: FIGS. 6A-6B. XIST ASO (ASO-6B) and DNMTi co-treatment in CDKL5 patient fibroblast. (A) A schematic of treatment of a human CDKL5 patient fibroblast line carrying mutation on the Xa. After 3 days of treatment with 100 nM XIST ASOs (lipofectamine transfection) and 0.5 uM Aza (added every 2 days), harvested cells underwent qPCR analysis. […] CDKL5 wt reactivation was normalized to CDKL5mut expression from the Xa chromosome, normalized to RPL13a.
FIGS. 8A-8C. Xi reactivation in human CDKL5 patient's fibroblast with XIST ASO+/−DNMTi (Decitabine, Azacitidine, RG-108). (A) A human CDKL5 patient fibroblast line carrying mutation on the Xa was treated with ASOs to XIST and three DNMTi. On day 0, cells were treated with 20 nM of XIST ASO-6B, and 1 uM of each DNMTi every 2 days. On day 7, cells were harvested for qPCR analysis. […] XIST expression was relative to untreated levels, normalized to RPL13a. […] CDKL5 wt reactivation was normalized to CDKL5mut expression from the Xa chromosome.
FIGS. 9A-9C. Xi reactivation in human CDKL5 patient's fibroblast with XIST ASO-6B and DNMT inhibitor (SGI-1027) co-treatment. (A) A human CDKL5 patient fibroblast line carrying mutation on the Xa was treated with an ASO to XIST and an DNMTi. […]
For orientation: Quantitative PCR measures a nucleic acid by following its amplification.

The next series has as its system XIST. The series can be described thus: XIST expression in CDKL5 patient fibroblasts after XIST ASO with or without DNMTi, qPCR. It is filed as cell-based, human. How it is done: FIGS. 8A-8C. Xi reactivation in human CDKL5 patient's fibroblast with XIST ASO+/−DNMTi (Decitabine, Azacitidine, RG-108). (A) A human CDKL5 patient fibroblast line carrying mutation on the Xa was treated with ASOs to XIST and three DNMTi. On day 0, cells were treated with 20 nM of XIST ASO-6B, and 1 uM of each DNMTi every 2 days. […] XIST expression was relative to untreated levels, normalized to RPL13a. […] CDKL5 wt reactivation was normalized to CDKL5mut expression from the Xa chromosome.
FIGS. 11A-11B. Triplicate experiment showing Xi reactivation in human CDKL5 patient's fibroblast with XIST ASO+/−DNMTi (Decitabine, Azacitidine, RG-108). […] CDKL5 wt reactivation was normalized to CDKL5mut expression from the Xa chromosome. Data shown are the average of three experiments; error bars are standard deviation.
RNA was isolated by Trizol (Life Technologies) extraction (tissues were snap frozen in liquid nitrogen and ground with pestle and mortar or put in Trizol and homogenized using a Qiagen TissueLyser), treated with TurboDNAse for 30 min at 37° C. […] The relative efficiency of the reactivations was calculated by comparing to GAPDH or TBP RNA as the internal control in mouse experiment. The relative efficiency of the reactivations was calculated by comparing to RPL13a as the internal control in human cells. […]

This is an account of results in patent US20230374505A1, “Human XIST Antisense Oligonucleotides for X Reactivation Therapy” (The General Hospital Corporation, priority 2020, published 2023).

Turning to `CC1OC(CC(=O)O)CC2=C1C(=O)c1c(O)cccc1C2=O` (centres unmarked) [Nanaomycin, nanaomycin A], the “concentration above which the cells were dead” value in series [1] is “above 250 nM”.
Consider `Nc1ncn([C@H]2C[C@H](O)[C@@H](CO)O2)c(=O)n1` [Aza, 5-aza-2′-deoxycytidine], for which, in series [2], the t1/2 is less than 1 h. For the same compound, the “Xi reactivation in the brain” value in series [3] was “sufficient to induce Xi reactivation”. Besides, the “tolerable concentration in cell culture” value with cell culture came out at 0.5 µM.
As to “ASO 6B: XIST ASO AGAAGTCTGGCACATCTGTG, SEQ ID NO:11 (LNA-flanked DNA gapmer, wing lengths and linkages not given here, further chemistry not given here)”, the CDKL5 reactivation in the series on CDKL5 wt allele (Xi) (20 nM ASO 6B at day 0, 1 uM Decitabine, 0.5 uM Azacitidine or 1 uM RG-108 at days 0 and 2, harvested Day 4, average of three experiments (FIG. 11B)) was 0.13%; in the series on CDKL5 wt allele (Xi) (20 nM ASO-6B at day 0, 1 uM DNMTi every 2 days, harvested day 7 (FIG. 8C)), 0.7%. In addition, the XIST expression result was “decreased” in the series with XIST (20 nM ASO-6B with and without 1 uM DNMTi, 7 days (FIG. 8B)); “decreased” in the series on XIST (20 nM ASO-6B with or without DNMTi, 4 days (FIG. 11A)).
